Patent US20060276534A1, “Methods of decreasing calcification” (Amgen Inc., priority 2005, published 2006)

Columns and labels:
5/6 Nx rats [1] = assay: Soft tissue mineralization by Von Kossa staining in 5/6 Nx rats (Example 4); format: in vivo, rat; conditions: 5/6 Nx rats, 14 days
Text: Wistar rats (200-250g), fed a 0.6% Ca and 1.2% P diet, were 5/6 nephrectomized (5/6 Nx).

5/6 Nx rats [2] = assay: Vascular calcification regression in 5/6 Nx rats on high phosphorus diet with calcitriol; format: in vivo, rat
Experimental: Animals were 5/6 Nx as previously described and placed on a high phosphorus diet (0.6% Ca; 1.2% P) for 14 days. Animals were divided into four groups (A,B,C and D n=4-5 animals per group), one group (A) received vehicle (saline 0.2 ml i.p.) while the remaining three groups (B,C and D) received calcitriol (80 ng/kg every other day i.p.) for the course of the study (28 days). On day 14 two groups (C and D) were converted to normal diet (Ca 0.9%; P 0.6%) and group C was administered Compound A at 3 mg/kg daily p.o.), while group D received vehicle (0.5 ml of 10% captisol in water p.o.) daily. The remaining groups (A and B) were kept on the high phosphorus diet and administered either calcitriol or vehicle for the course of the study (28 days). On day 28 all animals were sacrificed (CO2) and the aortas removed for determining aortic P and Ca content (mg/g of tissue) as previously described

5/6 Nx rats [3] = assay: Blood chemistries in 5/6 nephrectomy rat model of CKD (Example 1); format: in vivo; conditions: 14 days
Text: Male Wistar rats weighing 250 g were purchased from the Animal Breeding Facility of the University of Cordoba (Spain). Rats were housed with a 12 hr/12 hr light/dark cycle and given ad libitum access to normal diet (calcium=0.9%, phosphorus=0.6%). The experimental protocols were reviewed and approved by the Ethics Committee for Animal Research of the Universidad de Cordoba (Spain), and all animals received humane care in compliance with the Principles of Laboratory Animal Care, formulated by the National Society for Medical Research and the Guide for the Care and Use of Laboratory Animals prepared by the National Academy of Science.
(§1) The rodent model of CKD used in these studies was induced by 5/6 nephrectomy (5/6 Nx), a two-step procedure that reduces the original functional renal mass by five-sixths (5/6). In the first step, animals were anesthetized using xylazine (5 mg/kg, ip) and ketamine (80 mg/kg, ip), a 5-8 mm incision was made on the left medio-lateral surface of the abdomen, and the left kidney was exposed. The left renal artery was visualized and 2 of the 3 branches tightly ligated, after which the kidney was inspected for infarct and returned to an anatomically neutral position within the peritoneal cavity. The abdominal wall and skin incisions were closed with suture, and the rat placed back into its home cage. After 1 week of recovery, the animal was reanesthetised and a 5-8 mm incision was made on the right medio-lateral surface of the abdomen. The right kidney was exposed and unencapsulated, the renal pedicle clamped and ligated, and the kidney was removed. The ligated pedicle was returned to a neutral anatomical position and the abdomen and skin incisions closed with suture materials. The animal was allowed to recover in its home cage. Sham-operated animals underwent the same procedures without renal manipulation.
(§2) After the second surgery, the diet was changed to one with decreased calcium (0.6%) and increased phosphorus (0.9%) content. The rats were randomized (based on the normal distribution of baseline body weights) into 6 experimental groups: sham-operated (n=13) (used as a control), 5/6 Nx+vehicle (saline) (n=10), 5/6 Nx+calcitriol 80 ng/kg (Calcijex, Abbot) ip every other day (n=10), 5/6 Nx+Compound A 1.5 mg/kg per day sc (n=10) (Amgen, Thousand Oaks, Calif. USA), 5/6 Nx+Compound A 3 mg/kg per day sc (n=10), or 5/6 Nx+combination calcitriol 80 ng/kg and Compound A 1.5 mg/kg (n=10) dosed as above. Treatments were maintained for 14 days. The rats were sacrificed by aortic puncture and exsanguination under general anesthesia (ip sodium thiopenthal) 24 hours after the last dose of drug.
Blood for chemistry analyses was collected from the abdominal aorta at the end of the treatment period. Blood for measurements of ionized calcium levels was collected in heparinized syringes and immediately analyzed using a Ciba-Corning 634 ISE Ca++/pH Analyzer (Ciba-Corning Essex, England). Afterwards, plasma was separated by centrifugation and stored at −70° C. until assayed. PTH levels were quantified according to the vendor's instructions using a rat PTH(1-34) immunoradiometric assay kit (Immunotopics, San Clemente, CA). Serum creatinine, phosphorous, and total calcium were measured by spectrophotometry (Sigma Diagnostics, St. Louis, Mo., USA).
Values were expressed as the mean±standard error (SE). The difference between means for two different groups was determined by t test; the difference between means for three or more groups was assessed by ANOVA. P<0.05 was considered significant.

5/6 Nx rats [4] = assay: Ex vivo assessment of vascular calcification: aortic calcium and phosphorus content, von Kossa staining (Example 1); format: in vivo, rat; conditions: 14 days; for Mineral deposits in the aorta (von Kossa staining): single agents
Experimental: as §1, §2
Following sacrifice, the abdominal aortas were dissected and divided in two parts. One part was fixated in 10% buffered formalin and subsequently sectioned and stained for mineralization by the von Kossa method. The other was dimineralized in 10% formic acid, and the arterial tissue calcium and phosphorous content measured in the supernatant according to the method described by Price et al Arterioscler Thromb Vasc Biol 20:317-27, 2000.

5/6 Nx rats [5] = assay: Serum PTH, ionized Ca, P and creatinine in 5/6 Nx rats given paricalcitol and/or Compound B (Example 3); conditions: 14 days
5/6 Nx rats [6] = assay: Ca and P content of thoracic aorta in 5/6 Nx rats given paricalcitol and/or Compound B (Example 3); format: in vivo, rat; conditions: 14 days
Text: Wistar rats (200-250g), fed a 0.6% Ca and 1.2% P diet, were 5/6 nephrectomized (5/6 Nx) or sham-operated (sham).

[7] = calcitriol 80 ng/kg every 48 hr ip
[8] = Group B: high phosphorus diet + calcitriol 80 ng/kg every other day i.p. 28 days, vs Group A (vehicle)
[9] = Compound A 1.5 mg/kg per day sc, calcitriol 80 ng/kg ip every other day, or both, mean±SE
[10] = 5/6 Nx rats, compared to 5/6 Nx+vehicle
[11] = serum, 5/6Nx rats, paricalcitol 240 ng/kg every 48 hr ip, Compound B 1.5 mg/kg every 48 hr sc
[12] = 5/6 Nx rats, compared to vehicle treated 5/6 Nx animals (Compound B also vs sham)
[13] = thoracic aorta, 5/6Nx rats, paricalcitol 240 ng/kg every 48 hr ip, Compound B 1.5 mg/kg every 48 hr sc
[14] = Group C: normal diet from day 14 + Compound A 3 mg/kg daily p.o. while still receiving calcitriol, vs group D, day 28
[15] = Compound A 3 mg/kg per day sc, mean±SE
[16] = concurrent treatment with Compound A 1.5 mg/kg and calcitriol 80 ng/kg

## C=C1/C(=C\C=C2/CCC[C@]3(C)[C@@H]([C@H](C)CCCC(C)(C)O)CC[C@@H]23)C[C@@H](O)C[C@@H]1O [calcitriol, reference compound]
5/6 Nx rats [1]; [7]
  Mineralization in heart (Von Kossa staining): increased mineralization
  Mineralization in kidney (Von Kossa staining): increased mineralization
  Mineralization in lung (Von Kossa staining): increased mineralization
5/6 Nx rats [2]; [8]
  Aortic calcium content: significant (p<0.05) increases
  Aortic phosphorus content: significant (p<0.05) increases
5/6 Nx rats [3]; [9]
  Serum ionized calcium levels: 1.28 ± 0.02 mmol/L
  Serum phosphorus levels: 10.2 ± 0.9 mg/dL
5/6 Nx rats [3]; calcitriol 80 ng/kg ip every other day, alone or with Compound A 1.5 mg/kg per day sc, mean±SE
  Serum creatinine levels: 1.05 ± 0.07 mg/dL
5/6 Nx rats [4]; calcitriol 80 ng/kg ip every other day
  Phosphorus content in the aortic tissue: 2.1±1 mg/g tissue
5/6 Nx rats [4]; calcitriol 80 ng/kg ip every other day, mean±SE
  Aortic calcium content: 4.2±1.1 mg/g tissue
5/6 Nx rats [4]
  Mineral deposits in the aorta (von Kossa staining): marked von Kossa staining

## C[C@H](/C=C/[C@H](C)C(C)(C)O)[C@H]1CC[C@H]2/C(=C/C=C3C[C@@H](O)C[C@H](O)C3)CCC[C@]12C [Paricalcitol, paricalcitol, reference compound]
5/6 Nx rats [5]; [10]
  Blood ionized calcium, change in words: no changes
  Creatinine, change in words: no changes
  Serum P levels, change in words: no changes
  Serum PTH levels, change in words: significantly (p<0.05) decreased
5/6 Nx rats [5]; 5/6Nx rats, paricalcitol 240 ng/kg every 48 hr ip, Compound B 1.5 mg/kg every 48 hr sc
  Creatinine: 2.32 ± 0.43 mg/dL
5/6 Nx rats [5]; [11]
  P: 14.7 ± 2.1 mg/dL
  PTH: 250 ± 61 pg/mL
5/6 Nx rats [1]; paricalcitol 240 ng/kg every 48 hr ip
  Mineralization in kidney (Von Kossa staining): increased mineralization
5/6 Nx rats [6]; [12]
  Aortic Ca content, change in words: significantly increased
  Aortic P content, change in words: significantly increased
5/6 Nx rats [6]; [13]
  Aortic Ca: 9.5 ± 2.2 mg/g
  Aortic P: 6.2 ± 2.4 mg/g

## COc1cccc([C@@H](C)NCCCc2ccccc2Cl)c1.Cl [Compound A, N-(3-[2-chlorophenyl]-propyl)-R-α-methyl-3-methoxybenzylamine HCl]
5/6 Nx rats [2]; [14]
  Aortic calcium content: lower
  Aortic phosphorus content: significant (p<0.05) reduction
5/6 Nx rats [3]; Compound A 1.5 mg/kg per day sc alone or with calcitriol 80 ng/kg, mean±SE
  Serum PTH concentration: 73.5 ± 12.8 pg/mL
5/6 Nx rats [3]; Compound A 1.5 mg/kg per day sc included with calcitriol 80 ng/kg
  Calcitriol mediated increase in serum creatinine levels: decreased
5/6 Nx rats [3]; [9]
  Serum ionized calcium levels: 1.20 ± 0.02 mmol/L
  Serum phosphorus levels: 6.6 ± 0.3 mg/dL
5/6 Nx rats [3]; [15]
  Serum ionized calcium levels: 1.22 ± 0.02 mmol/L
  Serum phosphorus levels: 6.9 ± 0.4 mg/dL
5/6 Nx rats [4]; Compound A alone 1.5 or 3 mg/kg
  Raised phosphorus content in the aortic tissue, in words: did not
5/6 Nx rats [4]; addition of Compound A 1.5 mg/kg to the calcitriol-treatment regimen
  Development of aortic calcification (von Kossa staining): prevented the development of aortic calcification
5/6 Nx rats [4]; [16]
  Calcitriol-induced increase in aortic calcium: significantly (P=0.002) attenuated
  Calcitriol-induced increase in aortic phosphorus: significantly (P=0.013) attenuated
5/6 Nx rats [4]
  Mineral deposits in the aorta (von Kossa staining): not observed
